From ChEMBL document CHEMBL1139332, “Selective activity against Mycobacteriumtuberculosis of new quinoxaline 1,4-di-N-oxides” (Bioorg Med Chem, 2009)
Converted amounts (≈) assume the structure as drawn.

Key:
[1] = system: Mycobacterium tuberculosis; assay: Antimicrobial activity against Mycobacterium tuberculosis H37Rv by microplate alamar blue assay; format: functional
[2] = Selectivity index, ratio of IC50 for african green monkey Vero cells to MIC for Mycobacterium tuberculosis H37Rv; format: functional
Vero = assay: Cytotoxicity against african green monkey Vero cells after 72 hrs by MTT assay; format: cell-based, Chlorocebus sabaeus
[3] = system: Mycobacterium tuberculosis; assay: Antimicrobial activity against Mycobacterium tuberculosis H37Rv at 6.25 ug/ml by microplate alamar blue assay; format: functional
[4] = Chlorocebus sabaeus, Vero, 72 h, read-out: IC50

Structure (SMILES)	MIC [1]	Ratio [2]	IC50 (Vero; [4])	inhibition at 6.25 µg/mL [3]	IC50 (Vero; vero)
Cc1ccc(-c2c(C#N)[n+]([O-])c3cc(Cl)c(Cl)cc3[n+]2[O-])cc1	3.13 µg/mL (≈ 9.04 µM)	0.23	0.72 µg/mL (≈ 2.08 µM)	90%	–
N#Cc1c(-c2ccc(Cl)cc2)[n+]([O-])c2ccccc2[n+]1[O-]	0.39 µg/mL (≈ 1.31 µM)	0.92	0.36 µg/mL (≈ 1.21 µM)	90%	–
N#Cc1c(-c2ccc(F)cc2)[n+]([O-])c2ccc(C(F)(F)F)cc2[n+]1[O-]	< 0.2 µg/mL	>4.94	0.99 µg/mL (≈ 2.83 µM)	90%	–
CCOC(=O)c1c(-c2ccccc2)[n+]([O-])c2ccccc2[n+]1[O-]	1.56 µg/mL (≈ 5.03 µM)	15.87	24.8 µg/mL (≈ 79.8 µM)	90%	–
N#Cc1c(-c2ccc(OC(F)(F)F)cc2)[n+]([O-])c2cc(Cl)c(Cl)cc2[n+]1[O-]	< 0.2 µg/mL	–	–	90%	–
Cc1ccc(-c2c(C#N)[n+]([O-])c3cc(Cl)ccc3[n+]2[O-])cc1	6.25 µg/mL (≈ 20 µM)	0.1	0.63 µg/mL (≈ 2.02 µM)	90%	–
N#Cc1c(-c2ccccc2)[n+]([O-])c2ccc(F)cc2[n+]1[O-]	< 0.2 µg/mL	>88.03	17.6 µg/mL (≈ 62.6 µM)	90%	–
COC(=O)c1ccc(-c2c(C#N)[n+]([O-])c3cc(Cl)ccc3[n+]2[O-])cc1	3.13 µg/mL (≈ 8.8 µM)	6.7	20.9 µg/mL (≈ 58.7 µM)	90%	–
COc1ccc(-c2c(C#N)[n+]([O-])c3cc(OC)ccc3[n+]2[O-])cc1	< 0.2 µg/mL	–	–	90%	–
N#Cc1c(-c2ccccc2)[n+]([O-])c2ccc(C(F)(F)F)cc2[n+]1[O-]	< 0.2 µg/mL	>18.89	3.78 µg/mL (≈ 11.4 µM)	90%	–
Cc1ccc(-c2c(C#N)[n+]([O-])c3ccccc3[n+]2[O-])cc1	0.39 µg/mL (≈ 1.41 µM)	1.7	0.68 µg/mL (≈ 2.45 µM)	90%	–
N#Cc1c(-c2ccccc2)[n+]([O-])c2ccc(Cl)cc2[n+]1[O-]	0.39 µg/mL (≈ 1.31 µM)	0.92	0.36 µg/mL (≈ 1.21 µM)	90%	–
COc1ccc(-c2c(C#N)[n+]([O-])c3cc(C)ccc3[n+]2[O-])cc1	< 0.2 µg/mL	–	–	90%	–
N#Cc1c(-c2ccc(F)cc2)[n+]([O-])c2ccccc2[n+]1[O-]	< 0.2 µg/mL	>19.16	3.83 µg/mL (≈ 13.6 µM)	90%	–
COc1ccc(-c2c(C#N)[n+]([O-])c3cc(C(F)(F)F)ccc3[n+]2[O-])cc1	< 0.2 µg/mL	>4.53	0.9 µg/mL (≈ 2.49 µM)	90%	–
COC(=O)c1ccc(-c2c(C#N)[n+]([O-])c3cc(C)ccc3[n+]2[O-])cc1	0.39 µg/mL (≈ 1.16 µM)	8.2	3.2 µg/mL (≈ 9.54 µM)	90%	–
N#Cc1c(-c2ccc(F)cc2)[n+]([O-])c2cc(Cl)c(Cl)cc2[n+]1[O-]	< 0.2 µg/mL	>37.06	7.41 µg/mL (≈ 21.2 µM)	90%	–
Cc1ccc2c(c1)[n+]([O-])c(C#N)c(-c1ccc(F)cc1)[n+]2[O-]	< 0.2 µg/mL	>500	> 100 µg/mL	90%	–
Cc1ccc2c(c1)[n+]([O-])c(C#N)c(-c1ccc(Cl)cc1)[n+]2[O-]	0.39 µg/mL (≈ 1.25 µM)	1.15	0.45 µg/mL (≈ 1.44 µM)	90%	–
COC(=O)c1ccc(-c2c(C#N)[n+]([O-])c3ccccc3[n+]2[O-])cc1	0.78 µg/mL (≈ 2.43 µM)	6.2	4.8 µg/mL (≈ 14.9 µM)	90%	–

Structure (SMILES)	MIC [1]	Ratio [2]	IC50 (Vero; [4])	inhibition at 6.25 µg/mL [3]	IC50 (Vero; vero)
N#Cc1c(-c2ccccc2)[n+]([O-])c2cc(Cl)c(Cl)cc2[n+]1[O-]	0.2 µg/mL (≈ 0.602 µM)	–	–	90%	ND(Insoluble)
CCOC(=O)c1c(-c2ccc(Br)cc2)[n+]([O-])c2ccccc2[n+]1[O-]	0.39 µg/mL (≈ 1 µM)	15.69	6.12 µg/mL (≈ 15.7 µM)	90%	–
N#Cc1c(-c2ccc(OC(F)(F)F)cc2)[n+]([O-])c2ccc(C(F)(F)F)cc2[n+]1[O-]	< 0.2 µg/mL	–	–	90%	–
N#Cc1c(-c2ccc(OC(F)(F)F)cc2)[n+]([O-])c2ccc(Cl)cc2[n+]1[O-]	< 0.2 µg/mL	–	–	90%	–
Cc1c(C(=O)OCc2ccccc2)[n+]([O-])c2cc(Cl)ccc2[n+]1[O-]	0.1 µg/mL (≈ 0.29 µM)	470	–	–	–
CCOC(=O)c1c(-c2ccc(C)cc2)[n+]([O-])c2ccccc2[n+]1[O-]	0.78 µg/mL (≈ 2.4 µM)	14.47	11.3 µg/mL (≈ 34.8 µM)	90%	–
COc1ccc(-c2c(C#N)[n+]([O-])c3cc(Cl)ccc3[n+]2[O-])cc1	< 0.2 µg/mL	–	–	90%	–
COC(=O)c1ccc(-c2c(C#N)[n+]([O-])c3cc(C(F)(F)F)ccc3[n+]2[O-])cc1	< 0.2 µg/mL	>9.64	1.93 µg/mL (≈ 4.96 µM)	90%	–
COC(=O)c1ccc(-c2c(C#N)[n+]([O-])c3cc(OC)ccc3[n+]2[O-])cc1	3.13 µg/mL (≈ 8.91 µM)	1.2	3.9 µg/mL (≈ 11.1 µM)	90%	–
Cc1ccc(-c2c(C#N)[n+]([O-])c3cc(C)c(C)cc3[n+]2[O-])cc1	1.56 µg/mL (≈ 5.11 µM)	>40	> 62.5 µg/mL	90%	–
N#Cc1c(-c2ccc(OC(F)(F)F)cc2)[n+]([O-])c2ccc(F)cc2[n+]1[O-]	< 0.2 µg/mL	–	–	90%	–
Cc1ccc(-c2c(C#N)[n+]([O-])c3cc(C(F)(F)F)ccc3[n+]2[O-])cc1	< 0.2 µg/mL	>1.42	0.28 µg/mL (≈ 0.811 µM)	90%	–
Cc1cc2c(cc1C)[n+]([O-])c(-c1ccccc1)c(C#N)[n+]2[O-]	0.39 µg/mL (≈ 1.34 µM)	10	3.9 µg/mL (≈ 13.4 µM)	90%	–
Cc1ccc(-c2c(C#N)[n+]([O-])c3cc(C)ccc3[n+]2[O-])cc1	0.78 µg/mL (≈ 2.68 µM)	–	–	90%	ND(Insoluble)
COC(=O)c1ccc(-c2c(C#N)[n+]([O-])c3cc(C)c(C)cc3[n+]2[O-])cc1	6.25 µg/mL (≈ 17.9 µM)	1.5	9.66 µg/mL (≈ 27.7 µM)	90%	–
COc1ccc(-c2c(C#N)[n+]([O-])c3cc(F)ccc3[n+]2[O-])cc1	< 0.2 µg/mL	65.15	13 µg/mL (≈ 41.9 µM)	90%	–
CCOC(=O)c1c(-c2ccc(F)cc2)[n+]([O-])c2ccccc2[n+]1[O-]	0.39 µg/mL (≈ 1.19 µM)	22.82	8.9 µg/mL (≈ 27.1 µM)	90%	–
CCOC(=O)c1c(-c2ccccc2)[n+]([O-])c2cc(F)c(F)cc2[n+]1[O-]	1.56 µg/mL (≈ 4.5 µM)	0.24	0.38 µg/mL (≈ 1.1 µM)	90%	–
COc1ccc2c(c1)[n+]([O-])c(C#N)c(-c1ccc(Cl)cc1)[n+]2[O-]	0.78 µg/mL (≈ 2.38 µM)	1.3	1 µg/mL (≈ 3.05 µM)	90%	–
COC(=O)c1ccc(-c2c(C#N)[n+]([O-])c3cc(F)ccc3[n+]2[O-])cc1	< 0.2 µg/mL	>258.67	57.5 µg/mL (≈ 169 µM)	90%	–

Structure (SMILES)	MIC [1]	Ratio [2]	IC50 (Vero; [4])	inhibition at 6.25 µg/mL [3]	IC50 (Vero; vero)
CCOC(=O)c1c(-c2ccccc2)[n+]([O-])c2cc(C)c(C)cc2[n+]1[O-]	6.25 µg/mL (≈ 18.5 µM)	>1.6	> 10 µg/mL	90%	–
COc1ccc2c(c1)[n+]([O-])c(C#N)c(-c1ccc(F)cc1)[n+]2[O-]	< 0.2 µg/mL	>475.55	95.1 µg/mL (≈ 306 µM)	90%	–
Cc1ccc(-c2c(C#N)[n+]([O-])c3cc(F)ccc3[n+]2[O-])cc1	< 0.2 µg/mL	>73.19	14.6 µg/mL (≈ 49.6 µM)	90%	–
Cc1cc2c(cc1C)[n+]([O-])c(-c1ccc(OC(F)(F)F)cc1)c(C#N)[n+]2[O-]	0.42 µg/mL (≈ 1.12 µM)	–	–	90%	–
COc1ccc(-c2c(C#N)[n+]([O-])c3ccccc3[n+]2[O-])cc1	< 0.2 µg/mL	–	–	90%	–
Cc1cc2c(cc1C)[n+]([O-])c(N1CCN(c3ccc([N+](=O)[O-])cc3)CC1)c(C#N)[n+]2[O-]	< 0.2 µg/mL	>125	–	–	–
COc1ccc(-c2c(C#N)[n+]([O-])c3cc(C)c(C)cc3[n+]2[O-])cc1	< 0.2 µg/mL	–	–	90%	–
COc1ccc2c(c1)[n+]([O-])c(C#N)c(-c1ccccc1)[n+]2[O-]	3.13 µg/mL (≈ 10.7 µM)	–	–	90%	ND(Insoluble)
COc1ccc2c(c1)[n+]([O-])c(C#N)c(-c1ccc(OC(F)(F)F)cc1)[n+]2[O-]	< 0.2 µg/mL	–	–	90%	–
CCOC(=O)c1c(-c2ccccc2)[n+]([O-])c2cc(Cl)c(Cl)cc2[n+]1[O-]	< 0.2 µg/mL	–	–	90%	–
CC(=O)c1c(C)[n+]([O-])c2ccc(Cl)cc2[n+]1[O-]	0.78 µg/mL (≈ 3.09 µM)	20	–	–	–
N#Cc1c(-c2ccc(Cl)cc2)[n+]([O-])c2ccc(Cl)cc2[n+]1[O-]	0.39 µg/mL (≈ 1.17 µM)	–	–	90%	ND(Insoluble)
COc1ccc(-c2c(C#N)[n+]([O-])c3cc(Cl)c(Cl)cc3[n+]2[O-])cc1	< 0.2 µg/mL	–	–	90%	–
N#Cc1c(-c2ccc(OC(F)(F)F)cc2)[n+]([O-])c2ccccc2[n+]1[O-]	< 0.2 µg/mL	–	–	90%	–
Cc1ccc2c(c1)[n+]([O-])c(C#N)c(-c1ccc(OC(F)(F)F)cc1)[n+]2[O-]	< 0.2 µg/mL	–	–	90%	–
N#Cc1c(-c2ccc(Cl)cc2)[n+]([O-])c2cc(Cl)c(Cl)cc2[n+]1[O-]	< 0.2 µg/mL	–	–	90%	ND(Insoluble)
COC(=O)c1ccc(-c2c(C#N)[n+]([O-])c3cc(Cl)c(Cl)cc3[n+]2[O-])cc1	> 6.25 µg/mL	–	–	–	–
CCOC(=O)c1c(C)[n+]([O-])c2ccc(Cl)cc2[n+]1[O-]	0.2 µg/mL (≈ 0.708 µM)	>50	–	–	–
